Measurements from US7205382B2, “Peptides, the production and use thereof for binding immunoglobulins” (Fresenius Medical Care Affina GmbH, priority 2000, dated 2007).
Bridge positions count the residues as written; N and C are the ends. Ends that are not written are not given here. cellulose = not defined here; βAla = NCCC(=O)O

Columns and labels:
Assay type in all cases: binding
Parameters in all cases: key: No binding of immunoglobulin for the defined peptide variant, detection negative: 0; Binding of immunoglobulin for the defined peptide variant, detection positive: +
serum albumin = assay: Cellulose-immobilized 13-mer peptide variants incubated with serum albumin (negative control), anti-human IgG-AP detection; settings: blocking buffer without addition, 3 h room temperature
Summary of the method: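 Read-out was colorimetric NBT/BCIP staining (developing buffer pH 9.5) after alkaline phosphatase-conjugated anti-human IgG at 1.2 μg/ml. Before this, the immobilized peptides had been incubated 3 h at room temperature with 1 μg/ml IgG-Fc, 1:10,000 diluted serum, or albumin-containing blocking buffer without addition.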

[1] = tested on: immunoglobulins in human plasma; assay: Cellulose-immobilized 13-mer peptide variants incubated with human plasma, anti-human IgG-AP detection; settings: human plasma as sample, diluted 1:10,000 in blocking buffer, 3 h room temperature
Summary of the method: (§1)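 Spot membrane, (βA)(βA) spacer; T-TBS pH 8.0 wash, block 5% saccharose/4% BSA. 3 h RT with IgG-Fc 1 μg/ml, serum 1:10,000, or block buffer only (specificity control). 3× wash, AP-anti-human IgG 1.2 μg/ml, NBT/BCIP in pH 9.5 buffer.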

human IgG-Fc = assay: Cellulose-immobilized 13-mer peptide variants incubated with human IgG-Fc, anti-human IgG-AP detection; settings: IgG-Fc 1 μg/ml in blocking buffer, 3 h room temperature
Summary of the method: as §1

Substance | Result for incubation with serum albumin (immunoglobulin binding detection) (serum albumin) | Result for incubation with human plasma (immunoglobulin binding detection) [1] | Result for incubation with human IgG-Fc (immunoglobulin binding detection) (human IgG-Fc)
08W: cellulose-bound 13-mer variant DCAWHLGWLVWCT-(βA)(βA) (DCAWHLGWLVWCT-{βAla-βAla-cellulose}; disulfide 2-12 (inferred); reading uncertain; also: printed as DCAWHLGWLVWCT-(βA)(βA)) | 0 | 0 | 0
08Y: cellulose-bound 13-mer variant DCAWHLGYLVWCT-(βA)(βA) (DCAWHLGYLVWCT-{βAla-βAla-cellulose}; disulfide 2-12 (inferred); reading uncertain; also: printed as DCAWHLGYLVWCT-(βA)(βA)) | 0 | 0 | 0
09A: cellulose-bound 13-mer variant DCAWHLGEAVWCT-(βA)(βA) (DCAWHLGEAVWCT-{βAla-βAla-cellulose}; disulfide 2-12 (inferred); reading uncertain; also: printed as DCAWHLGEAVWCT-(βA)(βA)) | 0 | 0 | 0
09C: cellulose-bound 13-mer variant DCAWHLGECVWCT-(βA)(βA) (DCAWHLGECVWCT-{βAla-βAla-cellulose}; not fully specified; printed as DCAWHLGECVWCT-(βA)(βA); cysteine pairing not given here; reading uncertain) | 0 | 0 | 0
09D: cellulose-bound 13-mer variant DCAWHLGEDVWCT-(βA)(βA) (DCAWHLGEDVWCT-{βAla-βAla-cellulose}; disulfide 2-12 (inferred); reading uncertain; also: printed as DCAWHLGEDVWCT-(βA)(βA)) | 0 | 0 | 0
09E: cellulose-bound 13-mer variant DCAWHLGEEVWCT-(βA)(βA) (DCAWHLGEEVWCT-{βAla-βAla-cellulose}; disulfide 2-12 (inferred); reading uncertain; also: printed as DCAWHLGEEVWCT-(βA)(βA)) | 0 | 0 | 0
09F: cellulose-bound 13-mer variant DCAWHLGEFVWCT-(βA)(βA) (DCAWHLGEFVWCT-{βAla-βAla-cellulose}; disulfide 2-12 (inferred); reading uncertain; also: printed as DCAWHLGEFVWCT-(βA)(βA)) | 0 | 0 | 0
09G: cellulose-bound 13-mer variant DCAWHLGEGVWCT-(βA)(βA) (DCAWHLGEGVWCT-{βAla-βAla-cellulose}; disulfide 2-12 (inferred); reading uncertain; also: printed as DCAWHLGEGVWCT-(βA)(βA)) | 0 | 0 | 0
09H: cellulose-bound 13-mer variant DCAWHLGEHVWCT-(βA)(βA) (DCAWHLGEHVWCT-{βAla-βAla-cellulose}; disulfide 2-12 (inferred); reading uncertain; also: printed as DCAWHLGEHVWCT-(βA)(βA)) | 0 | 0 | 0
09I: cellulose-bound 13-mer variant DCAWHLGEIVWCT-(βA)(βA) (DCAWHLGEIVWCT-{βAla-βAla-cellulose}; disulfide 2-12 (inferred); reading uncertain; also: printed as DCAWHLGEIVWCT-(βA)(βA)) | 0 | 0 | 0
09K: cellulose-bound 13-mer variant DCAWHLGEKVWCT-(βA)(βA) (DCAWHLGEKVWCT-{βAla-βAla-cellulose}; disulfide 2-12 (inferred); reading uncertain; also: printed as DCAWHLGEKVWCT-(βA)(βA)) | 0 | + | +
09M: cellulose-bound 13-mer variant DCAWHLGEMVWCT-(βA)(βA) (DCAWHLGEMVWCT-{βAla-βAla-cellulose}; disulfide 2-12 (inferred); reading uncertain; also: printed as DCAWHLGEMVWCT-(βA)(βA)) | 0 | 0 | +
09N: cellulose-bound 13-mer variant DCAWHLGENVWCT-(βA)(βA) (DCAWHLGENVWCT-{βAla-βAla-cellulose}; disulfide 2-12 (inferred); reading uncertain; also: printed as DCAWHLGENVWCT-(βA)(βA)) | 0 | 0 | 0
09P: cellulose-bound 13-mer variant DCAWHLGEPVWCT-(βA)(βA) (DCAWHLGEPVWCT-{βAla-βAla-cellulose}; disulfide 2-12 (inferred); reading uncertain; also: printed as DCAWHLGEPVWCT-(βA)(βA)) | 0 | 0 | +
09Q: cellulose-bound 13-mer variant DCAWHLGEQVWCT-(βA)(βA) (DCAWHLGEQVWCT-{βAla-βAla-cellulose}; disulfide 2-12 (inferred); reading uncertain; also: printed as DCAWHLGEQVWCT-(βA)(βA)) | 0 | 0 | +
09R: cellulose-bound 13-mer variant DCAWHLGERVWCT-(βA)(βA) (DCAWHLGERVWCT-{βAla-βAla-cellulose}; disulfide 2-12 (inferred); reading uncertain; also: printed as DCAWHLGERVWCT-(βA)(βA)) | 0 | + | +
09S: cellulose-bound 13-mer variant DCAWHLGESVWCT-(βA)(βA) (DCAWHLGESVWCT-{βAla-βAla-cellulose}; disulfide 2-12 (inferred); reading uncertain; also: printed as DCAWHLGESVWCT-(βA)(βA)) | 0 | 0 | 0
09T: cellulose-bound 13-mer variant DCAWHLGETVWCT-(βA)(βA) (DCAWHLGETVWCT-{βAla-βAla-cellulose}; disulfide 2-12 (inferred); reading uncertain; also: printed as DCAWHLGETVWCT-(βA)(βA)) | 0 | 0 | 0
09V: cellulose-bound 13-mer variant DCAWHLGEVVWCT-(βA)(βA) (DCAWHLGEVVWCT-{βAla-βAla-cellulose}; disulfide 2-12 (inferred); reading uncertain; also: printed as DCAWHLGEVVWCT-(βA)(βA)) | 0 | 0 | 0
09W: cellulose-bound 13-mer variant DCAWHLGEWVWCT-(βA)(βA) (DCAWHLGEWVWCT-{βAla-βAla-cellulose}; disulfide 2-12 (inferred); reading uncertain; also: printed as DCAWHLGEWVWCT-(βA)(βA)) | 0 | 0 | 0
09Y: cellulose-bound 13-mer variant DCAWHLGEYVWCT-(βA)(βA) (DCAWHLGEYVWCT-{βAla-βAla-cellulose}; disulfide 2-12 (inferred); reading uncertain; also: printed as DCAWHLGEYVWCT-(βA)(βA)) | 0 | 0 | 0
